The target of assay [1] is HDAC1 (Homo sapiens (Human), UniProt Q13547). The conditions noted are these: read-out: HDAC1 IC50.
In assay [2] the target is HDAC8 (Homo sapiens (Human), UniProt Q9BY41). The conditions noted are these: read-out: HDAC8 IC50.

Here are results for 21 compounds from US11066396B2 (priority 2016, dated 2021).

Sequence of HDAC8 (Q9BY41 whole entry): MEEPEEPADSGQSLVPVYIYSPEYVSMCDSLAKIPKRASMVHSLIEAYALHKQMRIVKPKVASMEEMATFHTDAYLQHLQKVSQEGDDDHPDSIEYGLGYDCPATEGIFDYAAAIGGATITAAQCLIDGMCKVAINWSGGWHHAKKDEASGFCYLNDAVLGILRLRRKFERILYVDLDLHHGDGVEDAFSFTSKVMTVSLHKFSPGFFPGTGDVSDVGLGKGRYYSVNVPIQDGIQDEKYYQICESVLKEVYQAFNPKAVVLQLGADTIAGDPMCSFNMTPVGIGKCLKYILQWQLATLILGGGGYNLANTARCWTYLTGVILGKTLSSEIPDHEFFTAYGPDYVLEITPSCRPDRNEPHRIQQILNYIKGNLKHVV
Sequence of HDAC1 (Q13547 whole entry): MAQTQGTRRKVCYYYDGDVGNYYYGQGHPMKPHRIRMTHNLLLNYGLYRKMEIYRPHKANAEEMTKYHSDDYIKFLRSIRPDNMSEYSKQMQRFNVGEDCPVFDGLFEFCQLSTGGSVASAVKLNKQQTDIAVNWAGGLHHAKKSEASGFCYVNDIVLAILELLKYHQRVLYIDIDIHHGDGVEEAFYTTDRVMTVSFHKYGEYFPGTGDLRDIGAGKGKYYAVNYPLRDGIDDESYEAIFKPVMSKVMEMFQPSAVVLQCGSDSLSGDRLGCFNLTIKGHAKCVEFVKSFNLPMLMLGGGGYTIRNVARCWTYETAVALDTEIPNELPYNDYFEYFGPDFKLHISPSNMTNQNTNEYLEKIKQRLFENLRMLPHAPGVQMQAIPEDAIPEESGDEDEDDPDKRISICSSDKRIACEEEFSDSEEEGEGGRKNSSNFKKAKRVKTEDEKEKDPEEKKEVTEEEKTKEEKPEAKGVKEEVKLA

In general, IC50 refers to the midpoint of a concentration-inhibition curve. Consider `O=C(C1CC1c1cncnc1)N(Cc1ccc(-c2noc(C(F)(F)F)n2)cc1)c1cccc(C(F)(F)F)c1` (racemic) [Example 73, 2-(pyrimidin-5-yl)-N-(4-(5-(trifluoromethyl)-1,2,4-oxadiazol-3-yl)benzyl)-N-(3-(trifluoromethyl)phenyl)cyclopropane-1-carboxamide], for which the results for the IC50 in assay [1] and in assay [2] were 940 nM and 2200 nM, respectively.

In the case of `CC(Cn1cncn1)C(=O)N(Cc1ccc(-c2noc(C(F)(F)F)n2)cc1)c1cccc(C(F)(F)F)c1` (racemic) [Example 79, 2-methyl-3-(1H-1,2,4-triazol-1-yl)-N-(4-(5-(trifluoromethyl)-1,2,4-oxadiazol-3-yl)benzyl)-N-(3-(trifluoromethyl)phenyl)propanamide], the IC50 is 1300 nM in assay [1] and 3400 nM in assay [2].

Turning to `O=C(CC1CNCCO1)N(Cc1ccc(-c2noc(C(F)(F)F)n2)cc1)c1cccc(C(F)(F)F)c1` (racemic) [Example 82, 2-(morpholin-2-yl)-N-(4-(5-(trifluoromethyl)-1,2,4-oxadiazol-3-yl)benzyl)-N-(3-(trifluoromethyl)phenyl)acetamide], the IC50 was 860 nM in assay [1] and 2500 nM in assay [2].

In the case of `O=C(C1COCCO1)N(Cc1ccc(-c2noc(C(F)(F)F)n2)cc1)c1cccc(C(F)(F)F)c1` (racemic) [Example 84, N-(4-(5-(trifluoromethyl)-1,2,4-oxadiazol-3-yl)benzyl)-N-(3-(trifluoromethyl)phenyl)-1,4-dioxane-2-carboxamide], the IC50 worked out at 950 nM in assay [1] and 2400 nM in assay [2].

Take `O=C(CC1COCCO1)N(Cc1ccc(-c2noc(C(F)(F)F)n2)cc1)c1cccc(C(F)(F)F)c1` (racemic) [Example 95, 2-(1,4-dioxan-2-yl)-N-(4-(5-(trifluoromethyl)-1,2,4-oxadiazol-3-yl)benzyl)-N-(3-(trifluoromethyl)phenyl)acetamide]: the values for the IC50 in assay [1] and in assay [2] were 1300 nM and 2000 nM, respectively.

For `O=C1CCC(c2cccc(Cl)c2)N1c1ccc(-c2noc(C(F)(F)F)n2)cc1F` (racemic) [Example 116, 5-(3-chlorophenyl)-1-(2-fluoro-4-(5-(trifluoromethyl)-1,2,4-oxadiazol-3-yl)phenyl)pyrrolidin-2-one], the figures for the IC50 in assay [1] and in assay [2] were 1600 nM and 14000 nM, respectively.

For the compound `Fc1ccccc1C1COCCN1c1ccc(-c2noc(C(F)(F)F)n2)cn1` (racemic) [Example 135, 3-(2-fluorophenyl)-4-(5-(5-(trifluoromethyl)-1,2,4-oxadiazol-3-yl)pyridin-2-yl)morpholine], the IC50 in assay [1] stood at 210 nM; in assay [2], 1300 nM.

As to `Fc1cccc(C2COCCN2c2ccc(-c3noc(C(F)(F)F)n3)cn2)c1` (racemic) [Example 137, 3-(3-fluorophenyl)-4-(5-(5-(trifluoromethyl)-1,2,4-oxadiazol-3-yl)pyridin-2-yl)morpholine], the IC50 amounted to 440 nM in assay [1] and 2300 nM in assay [2].

As for `Fc1ccc(C2COCCN2c2ccc(-c3noc(C(F)(F)F)n3)cn2)cc1` (racemic) [Example 142, 3-(4-fluorophenyl)-4-(5-(5-(trifluoromethyl)-1,2,4-oxadiazol-3-yl)pyridin-2-yl)morpholine], the results for the 50% inhibitory concentration (IC50) in assay [1] and in assay [2] were 500 nM and 1900 nM, respectively.

As for `CC(C)(C)OC(=O)N1CC(=O)N(c2ccc(-c3noc(C(F)(F)F)n3)cc2)[C@H](c2ccccc2)C1` (racemic) [Example 163, tert-butyl 3-oxo-5-phenyl-4-(4-(5-(trifluoromethyl)-1,2,4-oxadiazol-3-yl)phenyl)piperazine-1-carboxylate], the IC50 in assay [1] was 1700 nM; in assay [2] it was 4300 nM.

Regarding `FC(F)(F)c1nc(-c2ccnc(OC3CCCc4ccc(Cl)nc43)c2)no1` (racemic) [Example 226, 2-chloro-8-({4-[5-(trifluoromethyl)-1,2,4-oxadiazol-3-yl]pyridin-2-yl}oxy)-5,6,7,8-tetrahydroquinoline], the results for the IC50 in assay [1] and in assay [2] were 1100 nM and 850 nM, respectively.

As to `CC1(C)CC(c2ccccc2)N(c2ccc(-c3noc(C(F)(F)F)n3)cc2F)C1=O` (racemic) [Example 312, 1-{2-fluoro-4-[5-(trifluoromethyl)-1,2,4-oxadiazol-3-yl]phenyl}-3,3-dimethyl-5-phenylpyrrolidin-2-one], the values for the IC50 in assay [1] and in assay [2] were 1400 nM and 45000 nM, respectively.

In the case of `O=C1CCC(c2c(F)cccc2F)N1c1ccc(-c2noc(C(F)(F)F)n2)cc1F` (racemic) [Example 314, 5-(2,6-difluorophenyl)-1-{2-fluoro-4-[5-(trifluoromethyl)-1,2,4-oxadiazol-3-yl]phenyl}pyrrolidin-2-one], the values for the IC50 in assay [1] and in assay [2] were 11000 nM and 6500 nM, respectively.

As to `COc1ccccc1C1CCC(=O)N1c1ccc(-c2noc(C(F)(F)F)n2)cc1F` (racemic) [Example 315, 1-{2-fluoro-4-[5-(trifluoromethyl)-1,2,4-oxadiazol-3-yl]phenyl}-5-(2-methoxyphenyl)pyrrolidin-2-one], the IC50 worked out at 2100 nM in assay [1] and 8000 nM in assay [2].

On to `O=C1CCC(c2ccc(-c3noc(C(F)(F)F)n3)cc2)N1c1ccccc1F` (racemic) [Example 320, 1-(2-fluorophenyl)-5-{4-[5-(trifluoromethyl)-1,2,4-oxadiazol-3-yl]phenyl}pyrrolidin-2-one], for which the IC50 in assay [1] stood at 880 nM; in assay [2] it was 12000 nM.

For `CC1(Cc2ccc(-c3noc(C(F)(F)F)n3)cc2)C(=O)Nc2ccc(F)cc21` (racemic) [Example 346, 5-fluoro-3-methyl-3-{4-[5-(trifluoromethyl)-1,2,4-oxadiazol-3-yl]benzyl}-1,3-dihydro-2H-indol-2-one], the IC50 was 1200 nM in assay [1] and 15000 nM in assay [2].

As for `Cc1nc2c(c(=O)[nH]1)CC(NCc1ccc(-c3noc(C(F)(F)F)n3)cc1)CC2` (racemic) [Example 350, 2-methyl-6-[({4-[5-(trifluoromethyl)-1,2,4-oxadiazol-3-yl]phenyl}methyl)amino]-5,6,7,8-tetrahydroquinazolin-4(3H)-one], the IC50 in assay [1] amounted to 1200 nM; in assay [2] it was 250 nM.

Turning to `FC(F)(F)c1nc(-c2ccc(CNC3CCc4ncccc4C3)cc2)no1` (racemic) [Example 351, N-({4-[5-(trifluoromethyl)-1,2,4-oxadiazol-3-yl]phenyl}methyl)-5,6,7,8-tetrahydroquinolin-6-amine], the IC50 was found to be 520 nM in assay [1] and 680 nM in assay [2].

`FC(F)(F)c1nc(-c2ccc(CNC3CCc4[nH]nc(C(F)(F)F)c4C3)cc2)no1` (racemic) [Example 353, 3-(trifluoromethyl)-N-({4-[5-(trifluoromethyl)-1,2,4-oxadiazol-3-yl]phenyl}methyl)-4,5,6,7-tetrahydro-1H-indazol-5-amine]: the figures for the IC50 in assay [1] and in assay [2] were 410 nM and 900 nM, respectively.

As to `FC(F)(F)c1nc(-c2ccc(CNC3CCN(c4ncccn4)C3)cc2)no1` (racemic) [Example 354, 1-(pyrimidin-2-yl)-N-({4-[5-(trifluoromethyl)-1,2,4-oxadiazol-3-yl]phenyl}methyl)pyrrolidin-3-amine], the IC50 in assay [1] stood at 1600 nM; in assay [2] it was 680 nM.

For `FC(F)(F)c1nc(-c2ccc(CNC3CCc4ncccc4C3)nc2)no1` (racemic) [Example 371, N-({5-[5-(trifluoromethyl)-1,2,4-oxadiazol-3-yl]pyridin-2-yl}methyl)-5,6,7,8-tetrahydroquinolin-6-amine], the IC50 in assay [1] is 450 nM; in assay [2] it was 1600 nM.
